# Laboratory results: patent US20120029066A1, “USE OF FLAVONES FOR TREATING PSYCHIATRIC DISORDERS WITH SENSORIMOTOR GATING DEFICITS” (Taipei Medical University, priority 2010, published 2012)
# Assays:
# mice [1] = assay: Prepulse inhibition (PPI) of acoustic startle response, test compounds i.p.; details: for effect of psychotomimetic alone on pre-pulse inhibition of the startle response: control experiment, KET 30 mg/Kg i.p. or MeAmph 2 mg/Kg i.p.; for rescue of PPI disruption induced by methamphetamine: MeAmPh 2 mg/kg i.p., 71 dB-prepulse protocol, FIG. 7
# mice [2] = assay: PPI of startle response after bilateral intra-cerebella microinjection of test compounds; type: in vivo; details: for reinstating ketamine induced PPI disruption: FIG. 4, FIG. 5
# Procedure: In view of the finding in FIGS. 2 and 3, test compounds (e.g., hispidulin or Ro-154513) were microinjected into cerebella (e.g., i.cb microinjection) of the test animals to confirm the action site of hispidulin, by observing whether the MeAmph, KET, or MK-801-induced PPI disruption may be rescued.
# Briefly, the mice were anaesthetized with pentobarbital (100 mg/kg i.p.) and placed in a stereotaxic frame. After shaving the hair, the skull surface was exposed by an incision. The head position of the mice was adjusted so that the bregma-lambda axis was horizontal. Then, two 24 gauge stainless-steel cannulae were implanted bilaterally into the lateral cerebellum (−6.4 mm caudal, ±1.5 mm lateral, −1.0 mm ventral from Bregma), according to stereotaxic coordinates (Paxions, 2001). Three stainless steel screws and dental cement were used to fix the cannulae on the top of the skull. The animal was allowed to fully recover after surgery for at least one week before the behavioral experiments were conducted.
# On the day of experiment, test compounds were injected through the embedded cannula at 0.5 μl on each side of the cerebellum for 30 s and waited for 1 min to allow the injected compounds to diffuse into the cerebellum. PPI test were conducted as described in Example 2. After experiments, methylene blue was microinjected (0.5 μl/side) and animals were sacrificed and cerebellar slices were dissected to confirm the microinjection site. The data was discarded in the mice with incorrect microinjection sites.
# Male ICR mice = assay: Methamphetamine-induced hyperlocomotion, locomotor activity test; type: in vivo; details: 10 mg/Kg i.p. after methamphetamine 2 mg/kg; test after 15 minutes; FIG. 1
# Procedure: Male ICR mice (25-35 g) were used in this study. They were bred, housed and maintained in the animal facility center with temperature- and humidity-controlled and 12:12 light dark cycle in National Taiwan University Medical College (NTUM) (Taiwan, R.O.C.). All animal experiments were carried out in accordance with the guidelines established by the Institutional Animal Care and Utilization Committee of the respective university.
# Methamphetamine (MeAmPh, 2 mg/kg) was injected into mice to induce hyperlocomotion in the mice as a typical model for behavioral experiments.
# After 15 minutes, the treated mice were then subjected to locomotor activity test.
# Data herein are expressed as the mean±S.E.M and the n number indicates the number of the mice used. Statistical comparisons between the data in control and treatment conditions were analyzed by Student's t test. An effect was considered statistically significant if the p value was less than 0.05.
# [3] = 71 or 77 dB prepulse, 115 dB pulse
# [4] = 10 nmol i.cb., KET 30 mg/Kg i.p.
smiles,measurement,setting,value
"CNC1(c2ccccc2Cl)CCCCC1=O (centres unmarked) [KET, ketamine, reference compound]",effect of psychotomimetic alone on pre-pulse inhibition of the startle response,mice [1]; [3],inhibited the pre-pulse inhibition
"CN[C@@H](C)Cc1ccccc1 [MeAmph, methamphetamine, reference compound]",effect of psychotomimetic alone on pre-pulse inhibition of the startle response,mice [1]; [3],inhibited the pre-pulse inhibition
"CCOC(=O)c1ncn2c1CN(C)C(=O)c1cc(N=[N+]=[N-])ccc1-2 [Ro 154513, reference compound]",reinstating ketamine induced PPI disruption,mice [2]; [4],reinstated
COc1ccc(-c2cc(=O)c3c(O)cc(O)cc3o2)cc1 [acacetin],decreasing MeAmph-induced hyperlocomotor activity,Male ICR mice,active
same,rescue of PPI disruption induced by methamphetamine,mice [1]; 10 mg/Kg i.p.,significantly rescued
"NS(=O)(=O)c1cc(C(=O)O)c(NCc2ccco2)cc1Cl [furosemide, reference compound]",effect on the reinstated ketamine induced PPI disruption,"mice [2]; furosemide 50 nmol i.cb., reinstatement by Ro-154513 or hispidulin 10 nmol i.cb., KET 30 mg/Kg i.p., FIG. 6",antagonized
same,effect on the reinstated methamphetamine induced PPI disruption,"mice [2]; furosemide 50 nmol i.cb., reinstatement by Ro-154513 or hispidulin 10 nmol i.cb., MeAmPh 2 mg/Kg i.p., FIG. 6",antagonized
COc1c(O)cc2oc(-c3ccc(O)cc3)cc(=O)c2c1O [hispidulin],decreasing MeAmph-induced hyperlocomotor activity,Male ICR mice,active
same,rescue of KET impaired PPI inhibition,"mice [1]; 10 mg/Kg i.p., 15-minute before KET 30 mg/Kg i.p., 71 or 77 dB prepulse, 115 dB pulse, FIG. 2",rescued
same,rescue of MeAmph impaired PPI inhibition,"mice [1]; 50 mg/Kg i.p., 15-minute before MeAmph 2 mg/Kg i.p., 71 or 77 dB prepulse, FIG. 3",rescued
same,reinstating ketamine induced PPI disruption,mice [2]; [4],effective in reinstating
same,reinstating MK-801 induced PPI disruption,"mice [2]; 10 nmol i.cb., MK-801 0.3 mg/Kg i.p., FIG. 4",effective in reinstating
same,reinstating methamphetamine induced PPI disruption,"mice [2]; 10 nmol i.cb., methamphetamine 2 mg/Kg i.p., FIG. 4",effective in reinstating
O=c1cc(-c2ccc(O)c(O)c2)oc2cc(O)cc(O)c12 [luteolin],rescue of PPI disruption induced by methamphetamine,mice [1]; 10 mg/Kg i.p.,significantly rescued
